Assay results published in patent publication US7671054B1, “Reverse-turn mimetics and method relating thereto” (Choongwae Pharma Corporation, priority 2001, dated 2010).
Values after ≈ are worked out from the molar mass of the structure shown. “Also recorded” adds a separate entry of the source.

What was measured:
COLO205 = experiment: Sulforhodamine B (SRB) assay; assay type: cell-based; conditions: Homo sapiens, COLO 205; COLO205, Colon; 48 hours; read-out: GI50 (SRB in vitro cytotoxicity)
Procedure: (§1) Growth inhibitory effect of Compound A on the cells listed below was measured by the sulforhodamine B assay. SW480 cells in 100 μl media were plated in each well of 96-well plate and allowed to attach for 24 hours. Compound A was added to the wells to produce the desired final concentrations, and the plates were incubated at 37° C. for 48 hours. The cells were then fixed by gentle addition of 100 μl of cold (4° C.) 10% trichloroacetic acid to each well, followed by incubation at 4° C. for 1 hour. Plates were washed with deionized water five times and allowed to air dry. The cells were then stained by addition of 100 μl SRB solution (0.4% SRB(w/v) in 1% acetic acid (v/v)) to wells for 15 min. After staining, the plates were quickly washed five times with 1% acetic acid to remove any unbound dye, and allowed to air dry. Bound dye was solubilized with 10 mmol/L Tris base (pH 10.5) prior to reading the plates. The optical density (OD) was read on a plate reader at a wavelength of 515 nm with Molecular Device. Inhibition of growth was expressed as relative viability (% of control) and GI50 was calculated from concentration-response curves after log/probit transformation.

HCT15 = experiment: Sulforhodamine B (SRB) assay; assay type: cell-based; conditions: Homo sapiens, HCT-15; HCT15, Colon; 48 hours; read-out: GI50 (SRB in vitro cytotoxicity)
Procedure: as §1

SK-MEL-5 = experiment: Sulforhodamine B (SRB) assay; assay type: cell-based; conditions: Homo sapiens; SK-MEL-5, Melanoma; 48 hours; read-out: GI50 (SRB in vitro cytotoxicity)
Procedure: as §1

DLD-1 = experiment: Sulforhodamine B (SRB) assay; assay type: cell-based; conditions: Homo sapiens; DLD-1, Colon; 48 hours; read-out: GI50 (SRB in vitro cytotoxicity)
Procedure: as §1

MCF7/ADR = experiment: Sulforhodamine B (SRB) assay; assay type: cell-based; conditions: Homo sapiens, NCI/ADR-RES, Breast, 48 hours, read-out: GI50 (SRB in vitro cytotoxicity)
Procedure: as §1

K562/VIN = experiment: Sulforhodamine B (SRB) assay; assay type: cell-based; conditions: Homo sapiens, Leukemia, 48 hours, read-out: GI50 (SRB in vitro cytotoxicity)
Procedure: as §1

NCI H460 = experiment: Sulforhodamine B (SRB) assay; assay type: cell-based; conditions: Homo sapiens; NCI H460, Lung; 48 hours; read-out: GI50 (SRB in vitro cytotoxicity)
Procedure: as §1

786-0 = experiment: Sulforhodamine B (SRB) assay; assay type: cell-based; conditions: Homo sapiens; 786-0, listed under Colon; 48 hours; read-out: GI50 (SRB in vitro cytotoxicity)
Procedure: as §1

NCI H23 = experiment: Sulforhodamine B (SRB) assay; assay type: cell-based; conditions: Homo sapiens; NCI H23, Lung; 48 hours; read-out: GI50 (SRB in vitro cytotoxicity)
Procedure: as §1

HMV-I = experiment: Sulforhodamine B (SRB) assay; assay type: cell-based; conditions: Melanoma, 48 hours, read-out: GI50 (SRB in vitro cytotoxicity)
Procedure: as §1

HL60 = experiment: Sulforhodamine B (SRB) assay; assay type: cell-based; conditions: Homo sapiens, HL-60; HL60, Leukemia; 48 hours; read-out: GI50 (SRB in vitro cytotoxicity)
Procedure: as §1

LOVO = experiment: Sulforhodamine B (SRB) assay; assay type: cell-based; conditions: Homo sapiens, Colon, 48 hours, read-out: GI50 (SRB in vitro cytotoxicity)
Procedure: as §1

ACHN = experiment: Sulforhodamine B (SRB) assay; assay type: cell-based; conditions: Homo sapiens, Renal, 48 hours, read-out: GI50 (SRB in vitro cytotoxicity)
Procedure: as §1

HMV-II = experiment: Sulforhodamine B (SRB) assay; assay type: cell-based; conditions: Melanoma, 48 hours, read-out: GI50 (SRB in vitro cytotoxicity)
Procedure: as §1

SW480-Kribb = experiment: Sulforhodamine B (SRB) assay; assay type: cell-based; conditions: Colon, 48 hours, read-out: GI50 (SRB in vitro cytotoxicity)
Procedure: as §1

A375 = experiment: Sulforhodamine B (SRB) assay; assay type: cell-based; conditions: Homo sapiens, A-375; A375, Melanoma; 48 hours; read-out: GI50 (SRB in vitro cytotoxicity)
Procedure: as §1

MCF7 = experiment: Sulforhodamine B (SRB) assay; assay type: cell-based; conditions: Homo sapiens; MCF7, Breast; 48 hours; read-out: GI50 (SRB in vitro cytotoxicity)
Procedure: as §1

[1] = system: caspase-3/7 in HCT116 cells; experiment: Caspase-3/7 activity assay; assay type: cell-based; conditions: 25 μM, 24 hours, compared to CCD18Co cells
Procedure: (§2) SW480, HCT116, and CCD18Co cells were plated at 10^5 cells per well (96-well plates) for 24 hours prior to treatment. […] 24 hours post treatment, cells were lysed and caspase activity was measured using a caspase-3/7 activity kit (Apo-One Homogeneous caspase-3/7 assay, #G77905, Promega). Relative fluorescence units (RFU) were obtained by subtracting the unit values of the blank (control, without cells) from the experimental measured values.

[2] = system: caspase-3/7 in SW480 cells; experiment: Caspase-3/7 activity assay; assay type: cell-based; conditions: 25 μM, 24 hours, compared to CCD18Co cells
Procedure: as §2

[3] = system: PC-12 cells overexpressing mutant PS-1/L286V; experiment: Neuronal differentiation and quantitation of neurite outgrowth; assay type: cell-based, Rat; conditions: PS-1/L286V mutant PC-12 cells
Procedure: Cell Differentiation. Cell culture dishes were pre-coated overnight with 0.25 mg/ml collagen (Cohesion, Calif.), 10 μg/ml Poly-L-Lysine (Sigma-Aldrich, St. Louis, Mo.) and 12 μg/ml Polyethyleneimine (ICN, La Mesa, Calif.). Cells were cultured on coated dishes at 15,000 cells/cm^2, and differentiated into a neuron-like phenotype by incubation in medium with reduced serum (1% fetal bovine serum), containing 50 ng/ml nerve growth factor (NGF) (Sigma-Aldrich) for 10 days. NGF-containing medium was changed every 2-3 days.
Differentiated PC-12/L286V cells were treated with increasing concentrations of this compound for 4 hours. Transfection was then initiated after this treatment period.
Quantitation of Neurite Outgrowth. Cell counts were taken from six randomly chosen microscopic fields (10×). […] The number of cells with such outgrowths was then expressed as a percentage of the total number of cells. Values obtained were from duplicates of three independent experiments.

[4] = biological target: β-catenin/p300 interaction (Homo sapiens, UniProt Q09472); conditions: Emami et al., Cancer Cell, in press; cited from earlier work
[5] = system: survivin promoter occupancy by CBP, β-catenin, Tcf4 and acetylated histone; experiment: ChIP assay on SW480 cells; assay type: cell-based; conditions: 25 μM, 18 hours

β-catenin/p300 interaction, sequence (Q09472 whole entry): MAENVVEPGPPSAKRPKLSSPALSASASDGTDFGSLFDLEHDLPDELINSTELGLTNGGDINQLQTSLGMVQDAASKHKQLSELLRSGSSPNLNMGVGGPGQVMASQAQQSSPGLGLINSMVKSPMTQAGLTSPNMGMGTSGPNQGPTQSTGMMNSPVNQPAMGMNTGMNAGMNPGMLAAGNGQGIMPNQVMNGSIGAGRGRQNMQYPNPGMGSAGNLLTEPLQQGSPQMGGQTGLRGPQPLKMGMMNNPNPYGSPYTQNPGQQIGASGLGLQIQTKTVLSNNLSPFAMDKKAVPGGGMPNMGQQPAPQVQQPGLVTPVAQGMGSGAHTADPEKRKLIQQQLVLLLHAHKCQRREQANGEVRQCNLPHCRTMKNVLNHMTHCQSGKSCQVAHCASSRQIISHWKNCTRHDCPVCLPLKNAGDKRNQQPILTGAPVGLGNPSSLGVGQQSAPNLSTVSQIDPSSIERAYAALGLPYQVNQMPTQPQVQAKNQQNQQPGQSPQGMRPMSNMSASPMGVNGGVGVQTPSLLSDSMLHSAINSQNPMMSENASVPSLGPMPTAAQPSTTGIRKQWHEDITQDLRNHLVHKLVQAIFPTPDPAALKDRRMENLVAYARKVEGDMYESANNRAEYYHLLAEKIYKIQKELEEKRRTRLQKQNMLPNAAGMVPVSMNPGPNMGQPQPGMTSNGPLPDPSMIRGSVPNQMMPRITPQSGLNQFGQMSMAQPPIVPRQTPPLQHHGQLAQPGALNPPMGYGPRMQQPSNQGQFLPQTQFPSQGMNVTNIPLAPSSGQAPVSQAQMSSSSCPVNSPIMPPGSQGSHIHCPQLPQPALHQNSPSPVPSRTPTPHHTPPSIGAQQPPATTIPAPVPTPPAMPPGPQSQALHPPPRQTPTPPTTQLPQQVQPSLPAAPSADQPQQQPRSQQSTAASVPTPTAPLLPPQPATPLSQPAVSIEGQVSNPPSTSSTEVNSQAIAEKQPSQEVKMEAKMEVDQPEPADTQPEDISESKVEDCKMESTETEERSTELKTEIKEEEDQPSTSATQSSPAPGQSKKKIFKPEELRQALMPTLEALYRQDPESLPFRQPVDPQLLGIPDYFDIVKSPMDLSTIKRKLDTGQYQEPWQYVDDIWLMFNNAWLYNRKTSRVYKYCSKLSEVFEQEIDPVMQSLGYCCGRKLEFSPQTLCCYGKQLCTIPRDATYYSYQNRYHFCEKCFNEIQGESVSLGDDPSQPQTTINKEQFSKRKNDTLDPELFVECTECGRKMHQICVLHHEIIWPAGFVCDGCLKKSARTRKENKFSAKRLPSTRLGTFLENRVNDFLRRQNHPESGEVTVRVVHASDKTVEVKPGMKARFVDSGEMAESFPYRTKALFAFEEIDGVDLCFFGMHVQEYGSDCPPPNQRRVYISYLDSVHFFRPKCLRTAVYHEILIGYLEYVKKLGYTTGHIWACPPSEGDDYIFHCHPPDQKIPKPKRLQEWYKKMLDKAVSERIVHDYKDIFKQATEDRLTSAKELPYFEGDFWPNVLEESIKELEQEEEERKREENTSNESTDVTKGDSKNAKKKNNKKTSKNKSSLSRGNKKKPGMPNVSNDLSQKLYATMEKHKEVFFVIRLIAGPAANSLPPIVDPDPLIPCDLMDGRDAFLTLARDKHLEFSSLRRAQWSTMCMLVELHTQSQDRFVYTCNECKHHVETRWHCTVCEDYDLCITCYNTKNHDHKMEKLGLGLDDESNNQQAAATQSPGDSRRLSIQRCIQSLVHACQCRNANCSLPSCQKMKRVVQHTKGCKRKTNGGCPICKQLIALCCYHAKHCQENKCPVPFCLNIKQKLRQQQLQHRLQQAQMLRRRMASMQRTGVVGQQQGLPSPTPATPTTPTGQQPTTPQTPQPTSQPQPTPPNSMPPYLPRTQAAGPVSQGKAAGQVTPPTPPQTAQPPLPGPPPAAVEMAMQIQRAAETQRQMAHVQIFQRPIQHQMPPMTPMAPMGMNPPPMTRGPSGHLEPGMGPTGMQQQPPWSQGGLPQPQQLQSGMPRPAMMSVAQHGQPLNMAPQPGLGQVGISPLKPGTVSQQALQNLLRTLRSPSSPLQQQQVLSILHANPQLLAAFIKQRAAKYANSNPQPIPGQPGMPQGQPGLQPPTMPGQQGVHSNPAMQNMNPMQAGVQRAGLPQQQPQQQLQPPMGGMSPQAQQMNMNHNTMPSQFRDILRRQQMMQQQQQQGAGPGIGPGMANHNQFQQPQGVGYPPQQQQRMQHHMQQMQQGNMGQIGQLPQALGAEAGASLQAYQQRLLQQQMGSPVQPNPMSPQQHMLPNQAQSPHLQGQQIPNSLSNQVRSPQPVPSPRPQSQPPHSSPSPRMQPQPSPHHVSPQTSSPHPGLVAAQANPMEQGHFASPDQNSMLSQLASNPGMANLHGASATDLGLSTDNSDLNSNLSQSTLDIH

For `O=c1[nH]cc(F)c(=O)[nH]1` [Compound 5-FU, 5-fluorouracil], the GI50 (COLO205) was 1.13 µg/mL (≈ 8.69 µM), the GI50 (HCT15) was 1.18 µg/mL (≈ 9.06 µM) and the GI50 (SK-MEL-5) was 2.43 µg/mL (≈ 18.7 µM). For the same compound, the GI50 (DLD-1) was over 10 µg/mL, the GI50 (MCF7/ADR) was over 10 µg/mL and the GI50 (K562/VIN) was 7.07 µg/mL (≈ 54.4 µM). The GI50 (NCI H460) was 1.4 µg/mL (≈ 10.7 µM), the GI50 (786-0) was 0.584 µg/mL (≈ 4.49 µM) and the GI50 (NCI H23) was 2.25 µg/mL (≈ 17.3 µM). The GI50 (HMV-I) was 2.11 µg/mL (≈ 16.2 µM), the GI50 (HL60) was 7.01 µg/mL (≈ 53.9 µM) and the GI50 (LOVO) was 1.03 µg/mL (≈ 7.91 µM). It also gave a GI50 (ACHN) of 5.06 µg/mL (≈ 38.9 µM), a GI50 (HMV-II) of 0.695 µg/mL (≈ 5.34 µM) and a GI50 (SW480-Kribb) of over 10 µg/mL. The GI50 (A375) was 1.46 µg/mL (≈ 11.3 µM) and the GI50 (MCF7) was 1.75 µg/mL (≈ 13.5 µM).

For `O=C1[C@H](Cc2ccc(O)cc2)N2C(=O)CCN(C(=O)NCc3ccccc3)[C@H]2CN1Cc1cccc2ccccc12` [Compound D], the caspase-3/7 activity [1] was “selectively activates caspases in colon carcinoma cell lines”, the caspase-3/7 activity [2] was “selectively activates caspases in colon carcinoma cell lines” and the “percentage of cells bearing neurites greater than twice the length of the cell body” value ([3]; 10 μM) was “substantially increased the percentage of cells bearing neurites; also recorded: significantly increased”. For the same compound, the “neurite outgrowth and differentiation” value ([3]; 10 μM plus NGF, 10 days) was “essentially normal neurite outgrowth and differentiation; also recorded: phenotypically corrects deficient neuronal differentiation”, the β-catenin/p300 interaction [4] was “not the β-catenin/p300 interaction” and the “association of CBP, β-catenin, Tcf4 and acetylated histone with the survivin promoter (ChIP)” value [5] was “decreases the association of all these proteins with the survivin promoter; also recorded: decreases the association of various proteins with the survivin promoter”.
